{
  "source": "patent US20160175401A1",
  "about": "“COMPOITIONS AND METHODS FOR MODULATING THERMOGENESIS USING PTH-RELATED AND EGF-RELATED COMPOUNDS” (DANA-FARBER CANCER INSTITUTE INC., priority 2013, published 2016)",
  "molecules": {"B1": {"name": "BTC: recombinant mouse BTC (Asp32-Gln118; Catalog No. 1025-CE-025/CF), R&D Systems (protein)", "chain": "DGNTTRTPETNGSLCGAPGENCTGTTPRQKVKTHFSRCPKQYKHYCIHGRCRFVVDEQTPSCICEKGYFGARCERVDLFYLQQDRGQ"}, "B2": {"name": "HBEGF: recombinant human HBEGF (Met1-Leu148; Catalog No. 259-HE-050/CF), R&D Systems (protein)", "chain": "LVTGESLERLRRGLAAGTSNPDPPTVSTDQLLPLGGGRDRKVRDLQEADLDLLRVTLSSKPQALATPNKEEHGKRKKKGKGLGKKRDPCLRKYKDFCIHGECKYVKELRAPSCICHPGYHGERCHGLSL"}},
  "assay_type_in_all_cases": "cell-based, mouse",
  "key": {"primary white adipocytes [1]": {"system": "primary white adipocytes", "experiment": "Thermogenic gene expression (qRT-PCR) in primary white adipocytes", "conditions": "for effect on Ucp1 expression / thermogenic gene expression by EGF proteins: 1 μg/mL or 100 ng/mL, primary white adipocytes (FIG. 14A); for effect on Ucp1 expression / thermogenic gene expression by EGF proteins / induce thermogenic gene expression, such as that of Ucp1 and Dio2: 24 hours; for induce thermogenic gene expression, such as that of Ucp1 and Dio2: 1 μg/mL of the protein, primary white adipocytes (FIG. 6, FIG. 19E)", "experimental": "Inguinal SV fractions were obtained from 30-35 days-old male mice by the following procedure. Inguinal fat tissue was dissected, washed with PBS, minced and digested for 45 min at 37° C. in PBS containing 10 mM CaCl, 2.4 U/mL dispase II (Roche), and 1.5 U/mL collagenase D (Roche). Digested tissue was filtered through a 100-μm cell strainer and centrifuged at 600 g for 5 min to pellet the SV cells which were then resuspended in SV culture medium (DMEM/F12 [1:1; Invitrogen] plus glutamax, pen/strep, and 10% FBS), filtered through a 40-μm cell strainer, centrifugation as above, resuspended in SV culture medium and plated. SV cells were grown to confluency for adipocyte differentiation which was induced by the adipogenic cocktail containing 1 μM dexamethasone, 5 μg/mL insulin, […] isobutylmethylxanthine (DMI), and 1 μM rosiglitazone in SV culture medium. 2 days after induction, cells were maintained in SV culture medium containing 5 μg/mL insulin and 1 μM rosiglitazone. Starting at day 6, cells were maintained in SV culture medium only and treated with various molecules for […] and harvested at day 8.\nLLC cells were maintained in DMEM (Invitrogen) with 10% FBS and pen/strep. For conditioned media collection, cells were plated at ⅓ confluency. The following day, medium is changed to FreeStyle expression medium (Invitrogen) which was collected 24 hours later. For concentration of expression medium, LLC conditioned media was filtered using a 3 kilodalton (Kd) cut-off filter (Millipore). Adipocytes were maintained in SV culture media (DMEM/F12 [1:1; Invitrogen] plus glutamax, pen/strep, and 10% FBS) and conditioned media treatment experiments were performed 7 days post-differentiation. When adipocytes were treated with conditioned media for 24 hours, the treatment media were composed of 50% SV culturing medium and 50% LLC conditioned media. When conditioned medium was filtered and concentrated, adipocytes were exposed to 90% SV culturing medium and 10% concentrated LLC conditioned media.\nRNA was extracted from cultured cells or frozen tissue samples using TRIzol (Invitrogen), purified with Qiagen RNAeasy minicolums and reverse transcribed using High Capacity cDNA Reverse Transcription kit (Applied Biosystems). Resulting cDNA was analyzed by RT-qPCR. Briefly, 25 ng of cDNA and […] of each primer were mixed with SYBR® GreenER™ PCR Master Mix (Invitrogen). Reactions were performed in 384-well format using an ABI PRISM® 7900HT instrument (Applied Biosystems). Relative mRNA levels were calculated using the comparative CT method normalized to cyclophilin.\nInguinal stroma-vascular fractions were obtained from 30-35-day-old male mice using the following procedure: Inguinal fat tissue was dissected, washed with PBS, minced and digested for 45 min at 37° C. in PBS containing 10 mM CaCl2, 2.4 Uml^−1 dispase 11 (Roche) and 1.5 U ml^−1 collagenaseD (Roche). Digested tissue was filtered through a 100-μm cell strainer and centrifuged at 600 g for 5 min to pellet the stroma-vascular cells. The pellets were then resuspended in adipocyte culture medium (DMEM/F2 (1:1, Invitrogen) plus GlutaMAX, penicillin and streptomycin, and 10% FBS), filtered through a 40-μm cell strainer, centrifuged as above, resuspended in adipocyte culture medium and plated. The stroma-vascular cells were grown to confluence for adipocyte differentiation, which was induced by an adipogenic cocktail containing 1 μM dexamethasone, 5 μg ml^−1 insulin, […] isobutylmethylxanthine (DMI) and 1 μM rosiglitazone in adipocyte culture medium. Two days after induction, cells were maintained in adipocyte culture medium containing 5 μg ml^−1 insulin and 1 μM rosiglitazone. Starting on day 6, cells were maintained in adipocyte culture medium only and treated with various molecules for 2-24 h and harvested on day 8.\nLLC cells were maintained in DMEM (Invitrogen) with 10% FBS, and penicillin and streptomycin. For conditioned medium collection, cells were plated at a 1:3 confluence."}, "[2]": {"system": "PKA substrates CREB and HSL", "experiment": "PKA signalling: protein phosphorylation by western blotting in primary adipocytes", "experimental": "UCP1 protein levels were measured by western blotting in white (FIG. 23A) and brown (FIG. 23B) adipocytes. […] Real-time triplicate readings (upper panel) and their averages (lower panel) are shown (n=4). […] The values are mean±s.e.m. Statistical analysis was conducted using the two-tailed t-test. *, P<0.05; **, P<0.005; ***, P<0.0005, compared with the control group.\n(§1) Cells were homogenized in a lysis buffer containing 50 mMTris (pH 7.4), 500 mM NaCl, 1% NP40, 20% glycerol, 5 mM EDTA and 1 mM phenylmethylsulphonyl fluoride (PMSF) supplemented with protease and phosphatase inhibitor cocktails (Roche). The homogenates were centrifuged at 13,000 r.p.m. for 10 min, and the supernatants were used as whole-cell lysates. Protein concentration was determined by Bio-Rad protein assay, and […] protein lysate was separated in each SDS-PAGE lane. The separated proteins were transferred to a polyvinylidene difluoride (PVDF)membrane, which was blotted with antibodies in TBS containing 0.05% Tween (TBS-T) and 5% BSA. For secondary antibody incubation. TBS-T containing 5% milk was used. Enhanced chemiluminescence (ECL) western blotting substrates (Pierce) were used for visualization of the results."}, "primary white adipocytes [3]": {"system": "primary white adipocytes", "experiment": "Cellular oxygen consumption rate (XF24 Extracellular Flux Analyzer, Seahorse) of primary adipocytes", "experimental": "The cellular oxygen consumption rate (OCR) of primary adipocytes was determined using an XF24 Extracellular Flux Analyzer (Seahorse Bioscience). […] Twenty-four hours later, adipocyte culture medium was changed to DMEM lacking NaHCO3 but containing 10 mM glucose, 1 mM pyruvate and the treatment chemicals. The uncoupled and maximal OCRs were determined using […] (carbonyl cyanide p-trifluoromethoxyphenylhydrazone), respectively. Complex-1-dependent respiration was inhibited with 3 μM rotenone. Ex vivo tissue respiration was measured using a Clark electrode (Strathkelvin Instruments) as described in Cohen et al. (2014) Cell 156:304-316. Freshly isolated tissues were briefly minced and transferred to the electrode chamber containing a respiration buffer consisting of 1×DPBS (Delbecco's phosphate-buffered saline), 2% BSA, 25 mM glucose and 1 mM pyruvate. Oxygen consumption values were normalized to tissue weight."}, "UCP1": {"system": "UCP1", "experiment": "UCP1 protein levels by western blotting in primary adipocytes", "experimental": "Cells were homogenized in a lysis buffer containing 50 mM Tris (pH 7.4), 500 mM NaCl, 1% NP40, 20% glycerol, 5 mM EDTA and 1 mM PMSF, supplemented with protease and phosphatase inhibitor cocktails (Roche). The homogenates were centrifuges at 13,000 rpm for 10 min and the supernatants were used as whole cell lysates. Protein concentration was determined by Bio-Rad Bradford assay and 50 μg of proteins were used in each SDS-PAGE run. PVDF membrane was blotted with UCP1 antibody (Abeam) in TBS containing 0.05% Tween and 5% BSA. For secondary antibody incubation, TBS-T containing 5% milk was used. ECL western blotting substrates from Pierce were used for visualization of the results.\nas §1"}},
  "note": "“Also recorded” adds a separate entry of the source.",
  "data": [
    {"molecule": "TGFA: recombinant human TGFA (Val40-Ala89; Catalog No. 239-A-100), R&D Systems", "values": [
      {"measurement": "effect on Ucp1 expression / thermogenic gene expression by EGF proteins", "setting": "primary white adipocytes [1]", "result": "largest effect on Ucp1 expression"}
    ]},
    {"molecule": "C=CC(=O)Nc1ccc2ncnc(Nc3ccc(OCc4cccc(F)c4)c(Cl)c3)c2c1", "note": "[AST-1306, reference compound]", "values": [
      {"measurement": "effect on LLC cell conditioned media thermogenic (browning) activity", "setting": "primary white adipocytes [1]; AST-1306 1 μM, LLC-cell-conditioned medium, 24 h (FIG. 14C, 21A)", "result": "does not inhibit or affect; also recorded: does not block; also recorded: largely unaffected"},
      {"measurement": "inhibition of BTC, EREG and HBEGF activity (Ucp1 mRNA induction)", "setting": "primary white adipocytes [1]; AST-1306 1 μM, BTC, EREG, HBEGF 100 ng/ml each, 24 h (FIG. 14B, 20C)", "result": "inhibit BTC, EREG and HBEGF activity; also recorded: completely blocked Ucp1 mRNA induction"}
    ]},
    {"molecule": "EREG: recombinant mouse EREG (Val56-Leu101; Catalog No. 1068-EP/CF), R&D Systems", "values": [
      {"measurement": "induce thermogenic gene expression, such as that of Ucp1 and Dio2", "setting": "primary white adipocytes [1]", "result": "most potent proteins to induce thermogenic gene expression; also recorded: most potent proteins for inducing thermogenic gene expression; also recorded: induced Ucp1 expression"},
      {"measurement": "effect on Ucp1 expression / thermogenic gene expression by EGF proteins", "setting": "primary white adipocytes [1]", "result": "largest effect on Ucp1 expression"}
    ]},
    {"molecule": "NC[C@H](O)c1ccc(O)c(O)c1", "note": "[norepinephrine, reference compound]", "values": [
      {"measurement": "phosphorylation of the PKA substrates CREB and HSL", "setting": "[2]; 100 nM NE, 100 ng ml^−1 PTHrP or PTH, 30 min, primary white and brown adipocytes (FIG. 23D-23E)", "result": "stimulated the phosphorylation"},
      {"measurement": "oxygen consumption, including basal, uncoupled and maximal respiration", "setting": "primary white adipocytes [3]; 100 nM NE, 100 ng ml^−1 PTHrP or PTH, 24 h (FIG. 23C)", "result": "significantly raised oxygen consumption"},
      {"measurement": "uncoupled respiration and maximal respiration potential", "setting": "primary white adipocytes [3]; 24 hour treatment, norepinephrine 100 nM, peptides 100 ng/mL, SeaHorse (FIG. 8D)", "result": "significantly elevate"},
      {"measurement": "UCP1 protein levels", "setting": "UCP1; 100 nM NE, 100 ng ml^−1 PTHrP or PTH, 24 h, primary white and brown adipocytes (FIG. 23A-23B)", "result": "comparably increased UCP1 protein levels"},
      {"measurement": "UCP1 protein levels", "setting": "UCP1; 24 hour treatment, norepinephrine 100 nM, peptides 100 ng/mL, western blotting (FIG. 8D)", "result": "significantly increased"}
    ]},
    {"molecule": "O=S(=O)(NCCNC/C=C/c1ccc(Br)cc1)c1cccc2cnccc12", "note": "[H89, reference compound]", "values": [
      {"measurement": "PKA signalling", "setting": "[2]; H89 50 μM white, 30 μM brown adipocytes, pretreated 1 h (FIG. 23D-23E)", "result": "blocked PKA signalling"},
      {"measurement": "transcriptional regulation (Ucp1, Dio2) by noradrenaline, PTHrP and PTH", "setting": "primary white adipocytes [1]; H89 50 μM white, 30 μM brown adipocytes, factors 2 h (FIG. 23F-23G)", "result": "completely inhibited transcriptional regulation"}
    ]},
    {"molecule": "B1", "values": [
      {"measurement": "induce thermogenic gene expression, such as that of Ucp1 and Dio2", "setting": "primary white adipocytes [1]", "result": "most potent proteins to induce thermogenic gene expression; also recorded: most potent proteins for inducing thermogenic gene expression; also recorded: induced Ucp1 expression"}
    ]},
    {"molecule": "B2", "values": [
      {"measurement": "induce thermogenic gene expression, such as that of Ucp1 and Dio2", "setting": "primary white adipocytes [1]", "result": "most potent proteins for inducing thermogenic gene expression; also recorded: induced Ucp1 expression"},
      {"measurement": "induce thermogenic gene expression, such as that of Ucp1 and Dio2", "setting": "primary white adipocytes [1]; listed as HB-EGF", "result": "most potent proteins to induce thermogenic gene expression"},
      {"measurement": "effect on Ucp1 expression / thermogenic gene expression by EGF proteins", "setting": "primary white adipocytes [1]", "result": "largest effect on Ucp1 expression"}
    ]}
  ]
}
